Measurements from publication PMC7614683, “A small molecule PI3Kα activator for cardioprotection and neuroregeneration” (Nature, 2023).

Assays:
PI3Kα G106V mutant = biological target: T1, PI3Kα G106V mutant (Homo sapiens, UniProt P42336, G106V); assay: ADP-Glo catalytic activity, oncogenic mutant G106V; format: biochemical
T1 construct: Full-length human p110α was expressed either in a complex with full-length human p85α (for HTS, biochemistry and HDX-MS); 6xHis tag followed by TEV protease site (N); host or cells: Sf9, baculovirus
Description: Expression and purification of wild-type p110α (Cambridge MRC Laboratory for Molecular Biology (LMB-MRC) plasmid number OP831) in a complex with full-length p85α (LMB-MRC plasmid OP809) was performed as described. The oncogenic mutants G106V (LMB-MRC plasmid JB35), N345K (LMB-MRC plasmid OP661) and E545K (LMB-MRC plasmid OP663) were also purified using this protocol. Briefly, 10 litres of Spodoptera frugiperda (Sf9) cell culture at a density of 1.0 x 10^6 cells/ml were co-infected with a p85α-encoding virus [LMB-MRC plasmid OP809]. and a virus encoding p110α with an N-terminal 6xHis tag followed by a tobacco etch virus (TEV) protease site [LMB-MRC plasmid OP831]. After a 48 h infection at 27°C, cells were harvested and washed with PBS. […]
For characterisation of the effects of 1938 on in vitro PI3K enzymology, all reactions were performed at room temperature with 384 white-polystyrene plates (Corning #3574). […] Data was expressed as velocity (nmol of ADP generated/nmol of enzyme/sec). […] Luminescence was read using a PHERAstar® plate reader with software version 5.41, and analyses were performed using GraphPad Prism 8/9.

CLK4 = CLK4 (Homo sapiens, UniProt Q9HAZ1); assay: SelectScreen LanthaScreen Binding; details: 1000 nM
Description: (§1) 133 protein kinases and 7 lipid kinases were counterscreened, with 1938 used at 1 μM, using the Adapta, Lantha and Z-LYTE assays (SelectScreen Kinase Profiling Service; Thermofisher – experimental details of these assays can be found here: https://www.thermofisher.com/uk/en/home/industrial/pharma-biopharma/drug-discovery-development/target-and-lead-identification-and-validation/kinasebiology/kinase-activity-assays.html. The tree represention in KinMap[59] generated courtesy of Cell Signaling Technology, Inc. (www.cellsignal.com). mTORC1 (mTOR/RAPTOR/LST8) protein complex and ATM kinase and substrates were produced as previously described[57],[60]. Screening of 1938 was conducted using SuperSep Phos-Tag 50 μmol/l 100 x 100 x 6.6 mm 17-well (192-18001/199-18011) gels. For ATM assays, 100 nM ATM was incubated for 30 min at 30°C with 5 μM GST-p53 and 1 mM ATP, in the absence or presence of 200 μM 1938 in ATM Kinase Buffer (50 mM HEPES pH 7.5, 100 mM NaCl, 10% glycerol, 2 mM […], 5 mM MgCl2). As a positive control for ATM activation, the same reaction was carried out with 100 nM ATM/5 μM GST-p53/1 mM ATP in the presence of 100 nM Mre11-Rad50-Nbs1 (MRN) complex, a known activator of ATM[61]. For mTORC1 assays, 50 nM mTORC1 complex (mTOR/LST8/RAPTOR) was incubated for 3 h at 30°C with 15 μM 4E-BP1, 10 mM MgCl2 and 250 μM ATP, in the absence or presence of 200 μM 1938. As a ‘positive’ control, a higher concentration (150 nM) of mTORC1 complex (mTOR/LST8/RAPTOR) was incubated for 3 h at 30°C with 15 μM 4E-BP1, 10 mM MgCl2 and 250 μM ATP. Kinase reactions were quenched by addition of SDS-PAGE Loading Buffer (as per manufacturer’s instructions) and freezing at -20°C before being run on the Phos-tag gels at 150 V for 90 min. Gels were then stained using InstantBlue™ Coomassie, and quantified using BioRad Image Lab Software. Kinase assays were carried out in triplicate.

MKNK2 (MNK2) = MKNK2 (MNK2) (Homo sapiens, UniProt Q9HBH9); assay: SelectScreen LanthaScreen Binding; details: 1000 nM
Description: as §1

MYLK (MLCK) = MYLK (MLCK) (Homo sapiens, UniProt Q15746); assay: SelectScreen LanthaScreen Binding; details: 1000 nM
Description: as §1

MYLK (MLCK), sequence (Q15746 whole entry): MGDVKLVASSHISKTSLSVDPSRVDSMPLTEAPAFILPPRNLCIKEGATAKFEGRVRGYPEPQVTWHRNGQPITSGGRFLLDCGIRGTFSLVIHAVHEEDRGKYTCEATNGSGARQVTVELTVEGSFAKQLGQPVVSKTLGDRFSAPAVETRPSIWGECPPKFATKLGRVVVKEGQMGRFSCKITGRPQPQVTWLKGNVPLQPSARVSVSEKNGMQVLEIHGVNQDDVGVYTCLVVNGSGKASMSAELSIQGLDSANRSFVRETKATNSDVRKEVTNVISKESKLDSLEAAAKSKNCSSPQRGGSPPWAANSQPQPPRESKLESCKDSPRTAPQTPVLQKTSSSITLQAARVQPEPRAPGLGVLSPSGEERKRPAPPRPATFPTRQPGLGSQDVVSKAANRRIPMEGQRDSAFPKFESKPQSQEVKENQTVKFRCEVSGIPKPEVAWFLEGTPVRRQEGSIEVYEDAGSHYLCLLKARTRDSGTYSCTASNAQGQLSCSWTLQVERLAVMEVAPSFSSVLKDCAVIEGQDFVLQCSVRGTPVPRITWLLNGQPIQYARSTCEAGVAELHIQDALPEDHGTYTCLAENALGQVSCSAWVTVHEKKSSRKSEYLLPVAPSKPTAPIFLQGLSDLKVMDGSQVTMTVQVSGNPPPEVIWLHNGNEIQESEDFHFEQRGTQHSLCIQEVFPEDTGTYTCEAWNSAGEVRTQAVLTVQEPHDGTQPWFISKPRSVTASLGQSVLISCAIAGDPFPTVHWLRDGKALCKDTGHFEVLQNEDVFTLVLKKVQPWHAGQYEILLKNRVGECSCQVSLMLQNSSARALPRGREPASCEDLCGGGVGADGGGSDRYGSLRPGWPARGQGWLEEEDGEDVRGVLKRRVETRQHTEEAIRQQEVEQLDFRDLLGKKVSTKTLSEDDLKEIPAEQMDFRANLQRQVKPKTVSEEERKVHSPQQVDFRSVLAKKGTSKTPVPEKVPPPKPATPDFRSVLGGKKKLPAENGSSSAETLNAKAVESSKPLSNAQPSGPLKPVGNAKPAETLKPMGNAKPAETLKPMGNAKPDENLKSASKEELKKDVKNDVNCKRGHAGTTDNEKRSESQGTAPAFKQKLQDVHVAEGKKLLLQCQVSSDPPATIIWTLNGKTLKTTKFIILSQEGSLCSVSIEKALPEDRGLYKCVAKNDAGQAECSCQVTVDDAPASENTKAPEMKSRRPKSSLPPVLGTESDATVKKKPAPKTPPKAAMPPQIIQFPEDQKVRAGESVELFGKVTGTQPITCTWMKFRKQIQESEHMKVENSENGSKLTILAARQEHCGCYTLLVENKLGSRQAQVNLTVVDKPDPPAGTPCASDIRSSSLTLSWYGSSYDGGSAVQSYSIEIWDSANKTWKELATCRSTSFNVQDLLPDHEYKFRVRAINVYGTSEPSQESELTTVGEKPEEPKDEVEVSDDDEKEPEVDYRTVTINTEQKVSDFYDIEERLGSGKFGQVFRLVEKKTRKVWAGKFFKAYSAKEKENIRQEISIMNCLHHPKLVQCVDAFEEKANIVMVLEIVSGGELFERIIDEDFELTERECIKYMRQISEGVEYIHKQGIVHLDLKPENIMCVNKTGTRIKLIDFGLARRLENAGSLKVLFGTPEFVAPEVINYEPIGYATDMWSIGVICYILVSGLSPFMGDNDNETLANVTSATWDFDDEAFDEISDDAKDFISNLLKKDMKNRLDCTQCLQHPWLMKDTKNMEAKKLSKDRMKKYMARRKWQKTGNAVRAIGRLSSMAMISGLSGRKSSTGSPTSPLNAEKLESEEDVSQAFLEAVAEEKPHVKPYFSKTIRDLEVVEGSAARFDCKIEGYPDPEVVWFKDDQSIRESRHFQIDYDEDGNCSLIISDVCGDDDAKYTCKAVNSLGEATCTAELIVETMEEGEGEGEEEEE
MKNK2 (MNK2), sequence (Q9HBH9 whole entry): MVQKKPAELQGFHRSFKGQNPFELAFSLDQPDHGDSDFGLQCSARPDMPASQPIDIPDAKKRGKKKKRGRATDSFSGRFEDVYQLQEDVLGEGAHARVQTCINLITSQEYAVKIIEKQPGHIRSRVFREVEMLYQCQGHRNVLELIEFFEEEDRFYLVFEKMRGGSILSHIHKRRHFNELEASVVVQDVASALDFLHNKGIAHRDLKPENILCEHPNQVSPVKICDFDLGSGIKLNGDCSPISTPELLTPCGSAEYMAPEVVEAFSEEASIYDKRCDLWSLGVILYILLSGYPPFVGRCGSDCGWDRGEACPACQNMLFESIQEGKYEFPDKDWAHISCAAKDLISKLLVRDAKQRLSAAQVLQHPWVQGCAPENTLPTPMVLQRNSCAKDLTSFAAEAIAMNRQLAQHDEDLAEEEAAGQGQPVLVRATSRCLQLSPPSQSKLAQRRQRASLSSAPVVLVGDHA
CLK4, sequence (Q9HAZ1 whole entry): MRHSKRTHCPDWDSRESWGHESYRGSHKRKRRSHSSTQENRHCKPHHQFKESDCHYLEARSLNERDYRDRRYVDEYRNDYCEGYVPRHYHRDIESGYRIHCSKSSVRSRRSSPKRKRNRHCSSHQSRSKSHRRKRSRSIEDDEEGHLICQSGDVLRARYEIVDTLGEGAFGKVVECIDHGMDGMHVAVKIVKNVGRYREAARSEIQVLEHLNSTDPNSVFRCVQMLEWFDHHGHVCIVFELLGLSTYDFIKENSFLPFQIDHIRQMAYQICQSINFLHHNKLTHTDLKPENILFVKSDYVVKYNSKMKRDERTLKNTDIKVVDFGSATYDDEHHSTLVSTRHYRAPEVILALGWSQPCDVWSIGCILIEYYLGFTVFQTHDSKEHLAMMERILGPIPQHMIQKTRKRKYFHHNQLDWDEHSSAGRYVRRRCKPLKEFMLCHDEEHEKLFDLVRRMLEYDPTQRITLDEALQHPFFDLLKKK
T1 sequence (P42336 whole entry G106V): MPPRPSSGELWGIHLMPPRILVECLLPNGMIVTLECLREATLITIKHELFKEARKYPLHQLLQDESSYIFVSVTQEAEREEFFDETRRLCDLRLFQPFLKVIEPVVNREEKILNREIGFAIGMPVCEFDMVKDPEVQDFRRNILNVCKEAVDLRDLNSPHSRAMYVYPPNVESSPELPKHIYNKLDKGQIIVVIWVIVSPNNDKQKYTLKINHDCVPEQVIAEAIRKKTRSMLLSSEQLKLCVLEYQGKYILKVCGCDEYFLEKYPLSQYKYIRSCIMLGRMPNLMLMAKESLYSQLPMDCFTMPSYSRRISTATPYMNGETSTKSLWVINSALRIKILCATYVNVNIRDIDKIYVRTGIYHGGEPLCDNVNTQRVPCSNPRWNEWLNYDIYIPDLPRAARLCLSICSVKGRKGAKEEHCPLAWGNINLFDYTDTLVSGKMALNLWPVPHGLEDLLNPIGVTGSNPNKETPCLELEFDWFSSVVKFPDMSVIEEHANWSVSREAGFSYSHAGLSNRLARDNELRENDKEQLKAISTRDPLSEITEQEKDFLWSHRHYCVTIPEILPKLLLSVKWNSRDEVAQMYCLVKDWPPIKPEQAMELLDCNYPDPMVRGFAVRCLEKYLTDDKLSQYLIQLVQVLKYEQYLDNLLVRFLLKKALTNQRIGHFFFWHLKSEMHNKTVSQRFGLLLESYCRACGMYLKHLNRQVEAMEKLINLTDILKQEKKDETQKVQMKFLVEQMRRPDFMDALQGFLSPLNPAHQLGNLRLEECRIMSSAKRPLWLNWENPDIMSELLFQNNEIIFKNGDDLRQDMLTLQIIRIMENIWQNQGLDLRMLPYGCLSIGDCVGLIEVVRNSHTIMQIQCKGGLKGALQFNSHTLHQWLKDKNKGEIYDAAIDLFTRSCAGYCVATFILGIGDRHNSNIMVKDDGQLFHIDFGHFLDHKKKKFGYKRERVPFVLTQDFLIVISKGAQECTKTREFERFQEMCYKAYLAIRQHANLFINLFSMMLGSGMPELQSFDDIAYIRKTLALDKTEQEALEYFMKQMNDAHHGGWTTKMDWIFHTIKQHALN
T1 sequence (P27986 whole entry partner): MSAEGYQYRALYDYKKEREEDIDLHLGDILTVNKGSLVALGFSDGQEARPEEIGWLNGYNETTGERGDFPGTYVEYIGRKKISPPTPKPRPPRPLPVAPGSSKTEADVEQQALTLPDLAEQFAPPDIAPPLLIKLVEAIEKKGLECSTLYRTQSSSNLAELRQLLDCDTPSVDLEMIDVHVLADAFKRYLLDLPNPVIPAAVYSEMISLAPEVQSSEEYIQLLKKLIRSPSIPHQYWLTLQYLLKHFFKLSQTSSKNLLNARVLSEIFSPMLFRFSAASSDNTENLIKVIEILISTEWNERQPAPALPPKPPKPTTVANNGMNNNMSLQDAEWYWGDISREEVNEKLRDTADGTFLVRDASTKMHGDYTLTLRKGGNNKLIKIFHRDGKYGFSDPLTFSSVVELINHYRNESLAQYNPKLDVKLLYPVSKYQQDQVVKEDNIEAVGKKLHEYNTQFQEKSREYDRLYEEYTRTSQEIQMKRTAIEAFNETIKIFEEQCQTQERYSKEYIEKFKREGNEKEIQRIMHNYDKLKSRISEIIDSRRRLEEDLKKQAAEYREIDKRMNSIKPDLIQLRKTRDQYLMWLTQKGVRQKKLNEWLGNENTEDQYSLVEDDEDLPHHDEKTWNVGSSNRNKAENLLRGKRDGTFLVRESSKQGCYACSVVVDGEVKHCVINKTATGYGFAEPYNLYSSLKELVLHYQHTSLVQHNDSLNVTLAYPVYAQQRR

Compound: CCN1CCN(c2ccc(Nc3cc(Nc4cccc5c4N(C(C)=O)CC5)ccn3)cc2)CC1 [Compound 1938]
- activation of G106V mutant (PI3Kα G106V mutant): levels comparable with stimulation with pY
- % Displacement Point 1 (CLK4): 1.72%
- % Displacement Point 2 (CLK4): 6.61%
- % Displacement mean (CLK4): 4%
- % Displacement Point 1 (MKNK2 (MNK2)): 20%
- % Displacement Point 2 (MKNK2 (MNK2)): 17%
- % Displacement mean (MKNK2 (MNK2)): 18%
- % Displacement Point 1 (MYLK (MLCK)): 1.85%
- % Displacement Point 2 (MYLK (MLCK)): 2.24%
- % Displacement mean (MYLK (MLCK)): 2%
